Reference: patent US7572920B2, “Benzimidazole derivative and use as a II receptor antagonist” (Takeda Pharmaceutical Company Limited, priority 2004, dated 2009)
Marks after values point to notes of the source that are not given here.

How the values were obtained:
[1] = tested on: angiotensin II induced pressor response; assay: Inhibition of angiotensin II induced pressor response in rats; type: in vivo, Male Sprague-Dawley rats; conditions: AII 100 ng/kg i.v., test compound p.o. at dose equimolar to compound A (0.10-0.14 mg/kg), in 0.5% methylcellulose, mean±SEM
Description: Inhibitory Effects of Compounds of the Present Invention Against Angiotensin II Induced Pressor Response in Rats
Male Sprague-Dawley rats (9-11 weeks old, CLEA Japan, Inc.) were anesthetized with pentobarbital (50 mg/kg, i.p.) and the femoral artery and vein were isolated and cannulated with polyethylene tubes filled with saline containing heparin (200 U/mL). The catheters were subcutaneously inserted to a site in the back of the neck and fixed. After recovery period, the rat was subjected to the experiment. The arterial catheter was connected to a pressure transducer coupled to a blood pressure monitor amplifier (2238, NEC San-ei Instruments) and the pressure was recorded on a recorder (RECTI-HORIZ 8K, NEC San-ei Instruments). After establishing angiotensin II (AII, 100 ng/kg, i.v.) induced pressor responses, a test compound at a dose corresponding to an equimolar amount of compound A (2-ethoxy-1-{[2′-(5-oxo-4,5-dihydro-1,2,4-oxadiazol-3-yl)biphenyl-4-yl]methyl}-1H-benzimidazole-7-carboxylic acid) was administered. AII was administered 24 hours later and increase in the blood pressure was measured, based on which the inhibition rate from the value before the administration was calculated. All compounds were suspended in 0.5% methylcellulose and orally administered at a volume of 2 mL/kg.
The results are shown in mean±SEM (Table 1). The significance between the group administered with the compound obtained in Example 5 and the other groups was analyzed using Student's t-test ([…]).

[2] = tested on: angiotensin II induced pressor response; assay: Inhibition of angiotensin II induced pressor response in dogs; type: in vivo, male beagles; conditions: fasting, AII 100 ng/kg i.v., test compound p.o. at dose equimolar to compound A 1 mg/kg, in 0.5% methylcellulose, mean±SEM
Description: Inhibitory Effects of the Compounds of the Present Invention Against Angiotensin II Induced Pressor Response in Dogs
For the experiment, male beagles (body weight 12.0-14.7 kg, KITAYAMA LABES, CO., LTD.) were used. They were anesthetized with sodium pentobarbital (50 mg/kg, i.p.), and a tracheal tube was inserted for management of the airway. The femoral region and the back of the neck were shaved, and a disinfectant (Isodine solution, MEIJI SEIKA KAISHA, LTD.) was applied. The dog was fixed at the dorsal position and the right femoral region was incised. A mirror catheter (5 F, MILLER INDUSTRIES) was inserted and placed in the femoral artery and a polyurethane tube in the femoral vein. The catheter and tube were passed through subcutaneously and fixed at the back region. The incised region was sutured thereafter and penicillin G potassium (MEIJI SEIKA KAISHA, LTD., 40000 units) was intramuscularly administered to prevent infection. Beginning from the next day, penicillin G potassium (40000 units) was administered once a day for 3 days. After 3 days for recovery, the dog was subjected to the experiment.
During the experiment, the dog was placed in a small metabolic cage. For measurement, the mirror catheter inserted in the femoral artery was connected to a transducer unit (MILLER INDUSTRIES), and the systemic blood pressure (average blood pressure) was recorded on a recorder (RECTI-HORIZ 8 K, NEC San-ei Instruments) through a DC amplifier (N4777, NEC San-ei Instruments) and a blood pressure monitor amplifier (N4441, NEC San-ei Instruments). The polyurethane tube inserted in the femoral vein was fixed outside the cage and used for administration of AII (PEPTIDE INSTITUTE, INC.). The experiment was conducted under fasting and AII (100 ng/kg, i.v.) was administered 3 or 4 times before administration of a test compound to confirm stabilization of the vasopressor response. A dose of the test compound corresponding to an equimolar amount of compound A was suspended in 0.5% methylcellulose and orally administered at a volume of 2 mL/kg. After drug administration, AII was administered at each time point of measurement and increase in the blood pressure was measured, based on which the inhibition rate from the value before the administration was calculated.
The results are shown in mean±SEM (Table 2). The significance between the group administered with the compound obtained in Example 5 and the group administered with compound A was analyzed using Student's t-test with Bonferroni correction ([…]).

Compound | inhibition rate of AII induced increase in blood pressure, 24 hrs after administration [1] | inhibition rate of AII induced increase in blood pressure, 10 hrs after administration [2] | inhibition rate of AII induced increase in blood pressure, 24 hrs after administration [2]
CCOc1nc2cccc(C(=O)OC(C)OC(=O)OC3CCCCC3)c2n1Cc1ccc(-c2ccccc2-c2noc(=O)[nH]2)cc1 (stereo not shown) [compound C, 1-(cyclohexyloxycarbonyloxy)ethyl 2-ethoxy-1-{[2′-(5-oxo-4,5-dihydro-1,2,4-oxadiazol-3-yl)biphenyl-4-yl]methyl}-1H-benzimidazole-7-carboxylate] | 9.3 ± 8.6* | – | –
CCOc1nc2cccc(C(=O)O)c2n1Cc1ccc(-c2ccccc2-c2noc(=O)[nH]2)cc1 [compound A, 2-ethoxy-1-{[2′-(5-oxo-4,5-dihydro-1,2,4-oxadiazol-3-yl)biphenyl-4-yl]methyl}-1H-benzimidazole-7-carboxylic acid] | – | 27.0 ± 3.2 | 19.6 ± 3.7
CCOc1nc2cccc(C(=O)OCOC(C)=O)c2n1Cc1ccc(-c2ccccc2-c2noc(=O)[nH]2)cc1 [compound D, acetoxymethyl 2-ethoxy-1-{[2′-(5-oxo-4,5-dihydro-1,2,4-oxadiazol-3-yl)biphenyl-4-yl]methyl}-1H-benzimidazole-7-carboxylate] | 10.9 ± 5.6* | – | –
CCOc1nc2cccc(C(=O)OCc3oc(=O)oc3C)c2n1Cc1ccc(-c2ccccc2-c2noc(=O)[nH]2)cc1 [Example 2, (5-methyl-2-oxo-1,3-dioxol-4-yl)methyl 2-ethoxy-1-{[2′-(5-oxo-4,5-dihydro-1,2,4-oxadiazol-3-yl)biphenyl-4-yl]methyl}-1H-benzimidazole-7-carboxylate] | – | 35.9 ± 4.8 | 28.6 ± 4.1
CCOc1nc2cccc(C(=O)OC)c2n1Cc1ccc(-c2ccccc2-c2noc(=O)[nH]2)cc1 [compound B, methyl 2-ethoxy-1-{[2′-(5-oxo-4,5-dihydro-1,2,4-oxadiazol-3-yl)biphenyl-4-yl]methyl}-1H-benzimidazole-7-carboxylate] | 0.8 ± 4.9** | – | –
CCOc1nc2cccc(C(=O)OCc3oc(=O)oc3C)c2n1Cc1ccc(-c2ccccc2-c2noc(=O)[nH]2)cc1.[K] [Example 5, (5-methyl-2-oxo-1,3-dioxol-4-yl)methyl 2-ethoxy-1-{[2′-(5-oxo-4,5-dihydro-1,2,4-oxadiazol-3-yl)biphenyl-4-yl]methyl}-1H-benzimidazole-7-carboxylate potassium salt] | 32.7 ± 4.6 | 55.6 ± 3.4** | 40.3 ± 5.1*
